Experimental findings from paper PMC5218480 (PLoS ONE, 2017) are described below.

The test system of this experiment is MV-4-11 cells. Briefly: Gene expression microarray analysis (Affymetrix PrimeView) and GSEA. Format: cell-based, human. The arrangement: RFU PODN (11730768_x_at) / Fold change /veh PODN (11730768_x_at) / RFU LINC00158 (11744669_a_at) / Fold change /veh LINC00158 (11744669_a_at) / RFU DUSP10 (11751237_a_at) / Fold change /veh DUSP10 (11751237_a_at) / RFU ID3 (11757404_x_at) / Fold change /veh ID3 (11757404_x_at) / RFU PLEKHG5 (11737974_s_at) / Fold change /veh PLEKHG5 (11737974_s_at) / RFU LRRC4B (11730491_at) / Fold change /veh LRRC4B (11730491_at) / RFU GIMAP4 (11747438_a_at) / Fold change /veh GIMAP4 (11747438_a_at) / RFU KRT8 (11758183_x_at) / Fold change /veh KRT8 (11758183_x_at) / RFU CNN1 (11734310_a_at) / Fold change /veh CNN1 (11734310_a_at) / RFU VPS37D (11726825_at) / Fold change /veh VPS37D (11726825_at) / RFU C10orf10 (11716522_x_at) / Fold change /veh C10orf10 (11716522_x_at) / RFU KIR2DL2 /// KIR2DL4 /// KIR2DL5A /// KIR2DL5B /// KIR2DS1 /// KIR2DS2 /// KIR2DS3 /// KIR2DS4 /// KIR3DL3 /// KIR3DL3 /// KIR3DS1 (11738374_at) / Fold change /veh KIR2DL2 /// KIR2DL4 /// KIR2DL5A /// KIR2DL5B /// KIR2DS1 /// KIR2DS2 /// KIR2DS3 /// KIR2DS4 /// KIR3DL3 /// KIR3DL3 /// KIR3DS1 (11738374_at) / RFU C1QL1 (11718748_at) / Fold change /veh C1QL1 (11718748_at) / RFU TMPRSS4 (11747572_a_at) / Fold change /veh TMPRSS4 (11747572_a_at) / RFU HAMP (11756126_x_at) / Fold change /veh HAMP (11756126_x_at) / RFU RNFT2 (11725882_a_at) / Fold change /veh RNFT2 (11725882_a_at) / RFU NR4A2 (11747474_a_at) / Fold change /veh NR4A2 (11747474_a_at) / RFU ABCC12 (11746883_a_at) / Fold change /veh ABCC12 (11746883_a_at) / RFU TMEM136 (11760407_x_at) / Fold change /veh TMEM136 (11760407_x_at) / RFU CLDN22 /// WWC2 (11732394_at) / Fold change /veh CLDN22 /// WWC2 (11732394_at) / RFU HLA-DPB1 (11760878_x_at) / Fold change /veh HLA-DPB1 (11760878_x_at) / RFU SPINT1 (11716480_a_at) / Fold change /veh SPINT1 (11716480_a_at) / RFU GAP43 (11754022_s_at) / Fold change /veh GAP43 (11754022_s_at) / RFU A4GNT (11735810_at) / Fold change /veh A4GNT (11735810_at) / RFU PRB3 (11715151_x_at) / Fold change /veh PRB3 (11715151_x_at) / RFU TUBB4B (11761932_at) / Fold change /veh TUBB4B (11761932_at) / RFU CAPN14 (11732068_a_at) / Fold change /veh CAPN14 (11732068_a_at) / RFU TMCC2 (11721928_a_at) / Fold change /veh TMCC2 (11721928_a_at) / RFU IRGQ (11745062_a_at) / Fold change /veh IRGQ (11745062_a_at) / RFU FAM174B (11720279_a_at) / Fold change /veh FAM174B (11720279_a_at) / RFU TMPRSS4 (11748680_a_at) / Fold change /veh TMPRSS4 (11748680_a_at) / RFU FAM212B (11763350_a_at) / Fold change /veh FAM212B (11763350_a_at) / RFU PLEKHG5 (11743358_a_at) / Fold change /veh PLEKHG5 (11743358_a_at) / RFU ZSCAN30 (11745921_a_at) / Fold change /veh ZSCAN30 (11745921_a_at) / RFU CMKLR1 (11741424_a_at) / Fold change /veh CMKLR1 (11741424_a_at) / RFU LOC101060620 /// MAPK8IP1 (11723275_at) / Fold change /veh LOC101060620 /// MAPK8IP1 (11723275_at) / RFU SPTSSB (11747773_x_at) / Fold change /veh SPTSSB (11747773_x_at) / RFU PRSS12 (11739890_at) / Fold change /veh PRSS12 (11739890_at) / RFU BIN1 (11741810_x_at) / Fold change /veh BIN1 (11741810_x_at) / RFU WNT11 (11732464_a_at) / Fold change /veh WNT11 (11732464_a_at) / RFU C10orf10 (11716521_a_at) / Fold change /veh C10orf10 (11716521_a_at) / RFU C5orf56 (11738089_at) / Fold change /veh C5orf56 (11738089_at) / RFU CYB561 (11721691_x_at) / Fold change /veh CYB561 (11721691_x_at) / RFU ANKRD19P (11752326_a_at) / Fold change /veh ANKRD19P (11752326_a_at) / RFU OR2T12 /// OR2T33 /// OR2T8 (11738714_s_at) / Fold change /veh OR2T12 /// OR2T33 /// OR2T8 (11738714_s_at) / RFU VCAN (11748164_a_at) / Fold change /veh VCAN (11748164_a_at) / RFU JSRP1 (11732532_at) / Fold change /veh JSRP1 (11732532_at) / RFU KRTAP10-11 (11738290_x_at) / Fold change /veh KRTAP10-11 (11738290_x_at) / RFU MYO3A (11730013_a_at) / Fold change /veh MYO3A (11730013_a_at) / RFU EBF3 (11725865_a_at) / Fold change /veh EBF3 (11725865_a_at) / RFU CAMK2N1 (11719241_x_at) / Fold change /veh CAMK2N1 (11719241_x_at) / RFU C5orf56 (11738088_a_at) / Fold change /veh C5orf56 (11738088_a_at) / RFU OLFML3 (11715873_a_at) / Fold change /veh OLFML3 (11715873_a_at) / RFU LOC100653217 /// NTM (11731650_a_at) / Fold change /veh LOC100653217 /// NTM (11731650_a_at) / RFU MAPK11 (11762145_a_at) / Fold change /veh MAPK11 (11762145_a_at) / RFU FIZ1 (11724087_x_at) / Fold change /veh FIZ1 (11724087_x_at) / RFU OASL (11726364_x_at) / Fold change /veh OASL (11726364_x_at) / RFU SOX15 (11748057_x_at) / Fold change /veh SOX15 (11748057_x_at) / RFU CD79A (11719716_a_at) / Fold change /veh CD79A (11719716_a_at) / RFU HIST1H1D (11736915_at) / Fold change /veh HIST1H1D (11736915_at) / RFU CASKIN2 (11723855_a_at) / Fold change /veh CASKIN2 (11723855_a_at) / RFU LOC730098 (11760151_x_at) / Fold change /veh LOC730098 (11760151_x_at) / RFU OR4N2 (11742367_at) / Fold change /veh OR4N2 (11742367_at) / RFU PRRT2 (11749266_a_at) / Fold change /veh PRRT2 (11749266_a_at) / RFU SNX32 (11753110_a_at) / Fold change /veh SNX32 (11753110_a_at) / RFU CDHR5 (11726645_a_at) / Fold change /veh CDHR5 (11726645_a_at) / RFU RCAN1 (11760418_a_at) / Fold change /veh RCAN1 (11760418_a_at) / RFU FAM167A (11723789_a_at) / Fold change /veh FAM167A (11723789_a_at) / RFU FAM26E (11764081_at) / Fold change /veh FAM26E (11764081_at) / RFU ISYNA1 (11749810_s_at) / Fold change /veh ISYNA1 (11749810_s_at) / RFU ACY1 (11761880_at) / Fold change /veh ACY1 (11761880_at) / RFU 11764098_at / Fold change /veh 11764098_at / RFU SAMD14 (11745864_x_at) / Fold change /veh SAMD14 (11745864_x_at) / RFU NPB (11741838_a_at) / Fold change /veh NPB (11741838_a_at) / RFU TMPRSS6 (11731388_a_at) / Fold change /veh TMPRSS6 (11731388_a_at) / RFU KRTAP10-2 (11738614_at) / Fold change /veh KRTAP10-2 (11738614_at) / RFU ARHGAP8 /// PRR5-ARHGAP8 (11727945_x_at) / Fold change /veh ARHGAP8 /// PRR5-ARHGAP8 (11727945_x_at) / RFU KRTAP5-7 /// NADSYN1 (11734609_at) / Fold change /veh KRTAP5-7 /// NADSYN1 (11734609_at) / RFU RASL12 (11751679_a_at) / Fold change /veh RASL12 (11751679_a_at) / RFU CDKN2B (11736163_a_at) / Fold change /veh CDKN2B (11736163_a_at) / RFU PRF1 (11729649_at) / Fold change /veh PRF1 (11729649_at) / RFU, ZNF638 /// ZNF638-IT1 / Fold change vs veh, ZNF638 /// ZNF638-IT1 / RFU, PANK3 / Fold change vs veh, PANK3 / RFU, SH3YL1 / Fold change vs veh, SH3YL1 / RFU, ZEB2 / Fold change vs veh, ZEB2 / RFU, NRIP1 / Fold change vs veh, NRIP1 / RFU, PTTG1IP / Fold change vs veh, PTTG1IP / RFU, CAPN2 / Fold change vs veh, CAPN2 / RFU, MED14 / Fold change vs veh, MED14 / RFU, SNORA58 / Fold change vs veh, SNORA58 / RFU, C1orf63 / Fold change vs veh, C1orf63 / RFU, LRRFIP1 / Fold change vs veh, LRRFIP1 / RFU, NDUFAF7 / Fold change vs veh, NDUFAF7 / RFU, SLC12A2 / Fold change vs veh, SLC12A2 / RFU, IBTK / Fold change vs veh, IBTK / RFU, ESF1 / Fold change vs veh, ESF1 / Fold change vs veh, TMEM50B / RFU, TAOK1 / Fold change vs veh, TAOK1 / RFU, ACBD3 / Fold change vs veh, ACBD3 / RFU, TMA16 / Fold change vs veh, TMA16 / RFU, RWDD3 / Fold change vs veh, RWDD3 / RFU, BCAT1 / Fold change vs veh, BCAT1 / RFU, EDEM3 / Fold change vs veh, EDEM3 / RFU, TMEM33 / Fold change vs veh, TMEM33 / RFU, WDR75 / Fold change vs veh, WDR75 / RFU, AHCTF1 / Fold change vs veh, AHCTF1 / RFU, TFRC / Fold change vs veh, TFRC / RFU, ZDHHC17 / Fold change vs veh, ZDHHC17 / RFU, NOM1 / Fold change vs veh, NOM1 / RFU, ARL8B / Fold change vs veh, ARL8B / RFU, ZBTB11 / Fold change vs veh, ZBTB11 / RFU, TAMM41 / Fold change vs veh, TAMM41 / RFU, KIAA1704 /// LOC100996395 / Fold change vs veh, KIAA1704 /// LOC100996395 / RFU, ING1 / Fold change vs veh, ING1 / RFU, TRMT61B / Fold change vs veh, TRMT61B / RFU, FUBP3 / Fold change vs veh, FUBP3 / RFU, TP53 / Fold change vs veh, TP53 / RFU, TNKS2 / Fold change vs veh, TNKS2 / RFU, ZFP14 / Fold change vs veh, ZFP14 / RFU, ACTR2 / Fold change vs veh, ACTR2 / RFU, PPP3R1 / Fold change vs veh, PPP3R1 / RFU, PIK3R1 / Fold change vs veh, PIK3R1 / RFU, HNRNPA1 / Fold change vs veh, HNRNPA1 / RFU, RNF170 / Fold change vs veh, RNF170 / RFU, ZNF28 / Fold change vs veh, ZNF28 / RFU, RNGTT / Fold change vs veh, RNGTT / RFU, OGT / Fold change vs veh, OGT / RFU, BRD1 / Fold change vs veh, BRD1 / RFU, MARS / Fold change vs veh, MARS / RFU, ZNF655 / Fold change vs veh, ZNF655 / RFU, FAHD1 / Fold change vs veh, FAHD1 / RFU, BDP1 / Fold change vs veh, BDP1 / RFU, LRRCC1 / Fold change vs veh, LRRCC1 / RFU, ARID1A / Fold change vs veh, ARID1A / RFU, ZNF146 / Fold change vs veh, ZNF146 / RFU, ZNF330 / Fold change vs veh, ZNF330 / RFU, GPN3 / Fold change vs veh, GPN3 / RFU, C9orf123 / Fold change vs veh, C9orf123 / RFU, N4BP2L2 / Fold change vs veh, N4BP2L2 / RFU, ARFIP1 / Fold change vs veh, ARFIP1 / RFU, FAM179B / Fold change vs veh, FAM179B / RFU, BCL10 / Fold change vs veh, BCL10 / RFU, UHRF1BP1L / Fold change vs veh, UHRF1BP1L / RFU, BET1 / Fold change vs veh, BET1 / RFU, CNOT2 / Fold change vs veh, CNOT2 / RFU, ZNF268 / Fold change vs veh, ZNF268 / Fold change vs veh, ZNF507 / RFU, DGCR2 / Fold change vs veh, DGCR2 / RFU, WDSUB1 / Fold change vs veh, WDSUB1 / Fold change vs veh, HSP90B1 /// MIR3652 / RFU, ADSS / Fold change vs veh, ADSS / RFU, GK / Fold change vs veh, GK / RFU, ZNF148 / Fold change vs veh, ZNF148 / RFU, TAF9 / Fold change vs veh, TAF9 / RFU, SLC1A5 / Fold change vs veh, SLC1A5 / RFU, SLMO2 / Fold change vs veh, SLMO2 / RFU, ABCC4 / Fold change vs veh, ABCC4 / RFU, LOC101060439 /// RAP1B / Fold change vs veh, LOC101060439 /// RAP1B / RFU, RFX7 / Fold change vs veh, RFX7 / RFU, GTPBP10 / Fold change vs veh, GTPBP10 / RFU, CNEP1R1 / Fold change vs veh, CNEP1R1 / RFU, BIVM-ERCC5 /// ERCC5 / Fold change vs veh, BIVM-ERCC5 /// ERCC5 / RFU, ILF3 / Fold change vs veh, ILF3 / RFU 11762660_at / Fold change /veh 11762660_at / RFU VCAN (11757783_s_at) / Fold change /veh VCAN (11757783_s_at) / RFU DDX43 (11728927_at) / Fold change /veh DDX43 (11728927_at) / RFU KRT8 (11758188_x_at) / Fold change /veh KRT8 (11758188_x_at) / RFU NKD1 (11759106_at) / Fold change /veh NKD1 (11759106_at) / RFU SRD5A1 (11742802_a_at) / Fold change /veh SRD5A1 (11742802_a_at) / RFU TPSAB1 /// TPSB2 (11721975_s_at) / Fold change /veh TPSAB1 /// TPSB2 (11721975_s_at) / RFU GSTM3 (11746129_a_at) / Fold change /veh GSTM3 (11746129_a_at) / RFU IL23R (11737362_x_at) / Fold change /veh IL23R (11737362_x_at) / RFU TMEM51 (11727254_a_at) / Fold change /veh TMEM51 (11727254_a_at) / RFU PIWIL2 (11732686_x_at) / Fold change /veh PIWIL2 (11732686_x_at) / RFU ORM1 (11744905_x_at) / Fold change /veh ORM1 (11744905_x_at) / RFU CCDC152 (11743942_at) / Fold change /veh CCDC152 (11743942_at) / RFU ECM1 (11717891_a_at) / Fold change /veh ECM1 (11717891_a_at) / RFU IL23R (11748794_a_at) / Fold change /veh IL23R (11748794_a_at) / RFU TNFAIP8L3 (11732012_x_at) / Fold change /veh TNFAIP8L3 (11732012_x_at) / RFU MBOAT4 (11741988_at) / Fold change /veh MBOAT4 (11741988_at) / RFU 11764193_at / Fold change /veh 11764193_at / RFU TMEM53 (11763286_at) / Fold change /veh TMEM53 (11763286_at) / RFU MAGEB2 (11727129_at) / Fold change /veh MAGEB2 (11727129_at) / RFU TMEM200A (11744735_a_at) / Fold change /veh TMEM200A (11744735_a_at) / RFU CCDC152 (11751479_a_at) / Fold change /veh CCDC152 (11751479_a_at) / RFU FAM211A (11726209_a_at) / Fold change /veh FAM211A (11726209_a_at) / RFU RGS16 (11746705_a_at) / Fold change /veh RGS16 (11746705_a_at) / RFU VCAN (11755009_s_at) / Fold change /veh VCAN (11755009_s_at) / RFU RHOB (11743442_s_at) / Fold change /veh RHOB (11743442_s_at) / RFU RGS16 (11720943_a_at) / Fold change /veh RGS16 (11720943_a_at) / RFU RGS16 (11720944_at) / Fold change /veh RGS16 (11720944_at) / RFU, VPS4B / Fold change vs veh, VPS4B / RFU, CREB1 / Fold change vs veh, CREB1 / RFU, DNAJC13 / Fold change vs veh, DNAJC13 / RFU, GNAQ / Fold change vs veh, GNAQ / RFU, CDK5R1 / Fold change vs veh, CDK5R1 / RFU, ZRANB3 / Fold change vs veh, ZRANB3 / RFU, CUL4A / Fold change vs veh, CUL4A / RFU, CCNY / Fold change vs veh, CCNY / RFU, UFL1 / Fold change vs veh, UFL1 / RFU, COG3 / Fold change vs veh, COG3 / RFU, DIAPH2 / Fold change vs veh, DIAPH2 / RFU, SKA2 / Fold change vs veh, SKA2 / RFU, AFF3 / Fold change vs veh, AFF3 / RFU, LMF1 / Fold change vs veh, LMF1 / RFU, IPO11 / Fold change vs veh, IPO11 / RFU, DFFB / Fold change vs veh, DFFB / RFU, FOXP1 / Fold change vs veh, FOXP1 / RFU, CARD8 / Fold change vs veh, CARD8 / RFU, STRN3 / Fold change vs veh, STRN3 / RFU, ADK / Fold change vs veh, ADK / RFU, RASSF2 / Fold change vs veh, RASSF2 / RFU, WIPF1 / Fold change vs veh, WIPF1 / RFU, LARP1B / Fold change vs veh, LARP1B / RFU, RASA1 / Fold change vs veh, RASA1 / RFU, RB1 / Fold change vs veh, RB1 / RFU, PPFIA1 / Fold change vs veh, PPFIA1 / RFU, MAT2A / Fold change vs veh, MAT2A / RFU, CCT5 / Fold change vs veh, CCT5 / RFU, WDR92 / Fold change vs veh, WDR92 / RFU, CUX1 / Fold change vs veh, CUX1 / RFU, TTC7A / Fold change vs veh, TTC7A / RFU, TMEM135 / Fold change vs veh, TMEM135 / RFU, DEPTOR / Fold change vs veh, DEPTOR / RFU, CPM / Fold change vs veh, CPM / RFU, DNAJB6 / Fold change vs veh, DNAJB6 / RFU, CACNA2D3 / Fold change vs veh, CACNA2D3 / RFU, DTX4 / Fold change vs veh, DTX4 / RFU, TFCP2 / Fold change vs veh, TFCP2 / RFU, GMCL1 /// GMCL1P1 / Fold change vs veh, GMCL1 /// GMCL1P1 / RFU, AEBP2 / Fold change vs veh, AEBP2 / RFU, SNHG1 /// SNORD22 /// SNORD25 /// SNORD26 /// SNORD27 /// SNORD28 /// SNORD29 /// SNORD31 / Fold change vs veh, SNHG1 /// SNORD22 /// SNORD25 /// SNORD26 /// SNORD27 /// SNORD28 /// SNORD29 /// SNORD31 / Fold change (Aza/veh), C12orf56 (ProbeSet 11735607_a_at) / Fold change (ACY-1035/veh), C12orf56 (ProbeSet 11735607_a_at) / Fold change (Aza/veh), FGFR1OP (ProbeSet 11751329_s_at) / Fold change (ACY-1035/veh), FGFR1OP (ProbeSet 11751329_s_at) / Fold change (Aza/veh), VPS36 (ProbeSet 11739960_a_at) / Fold change (ACY-1035/veh), VPS36 (ProbeSet 11739960_a_at) / RFU SYPL1 (11715823_x_at) / Fold change /veh SYPL1 (11715823_x_at) / RFU IGFBP7 (11715501_s_at) / Fold change /veh IGFBP7 (11715501_s_at) / RFU REEP3 (11722064_at) / Fold change /veh REEP3 (11722064_at) / RFU IGLL1 (11728026_x_at) / Fold change /veh IGLL1 (11728026_x_at): dose or concentration left out as unconfirmed. To be noted: ProbeSet 11727545_at; LIST B.

As to `Nc1ccc(-c2cccs2)cc1NC(=O)c1ccc2c(c1)cc(C1CC1)n2CCN1CCOCC1` [ACY-1035], the “RFU, PANK3” value was 81.04 RFU.
